US6479435B1, “Diaryl ethers and processes for their preparation and herbicidal and desiccant compositions containing them” (ISK Americas Incorporated, priority 1997, dated 2002)

Assays:
Format in all cases: in vivo
[1] = system: large crabgrass (Digitaria sanguinalis, DIGSA); test: Post-emerge greenhouse herbicide test, phytotoxicity rating; conditions: 14 days after application
Procedure, shortened: (§1)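 Scores use a 0 (no damage) to 100 (complete kill) scale, taken 14 days after a foliar spray. Acetone solutions with 0.25% v/v non-ionic surfactant were applied by track sprayer at 187 l/ha and 63-1000 g ai/ha to bottom-watered 2-3 leaf plants.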

[2] = system: redroot pigweed (Amaranthus retroflexus, AMARE); test: as above; conditions: 14 days after application
Procedure, shortened: as §1

[3] = system: barnyardgrass (Echinochloa crusgalli, ECHCG); test: as above; conditions: 14 days after application
Procedure, shortened: as §1

[4] = system: ivyleaf morningglory (Ipomoea hederacea, IPOHE); test: as above; conditions: 14 days after application
Procedure, shortened: as §1

[5] = system: Johnsongrass (Sorghum halepense, SORHA); test: as above; conditions: 14 days after application
Procedure, shortened: as §1

[6] = system: green foxtail (Setaria viridis, SETVI); test: as above; conditions: 14 days after application
Procedure, shortened: as §1

[7] = system: sicklepod (Cassia obtusifolia, CASOB); test: as above; conditions: 14 days after application
Procedure, shortened: as §1

[8] = system: lambsquarters (Chenopodium album, CHEAL); test: as above; conditions: 14 days after application
Procedure, shortened: as §1

[9] = system: velvetleaf (Abutilon theophrasti, ABUTH); test: as above; conditions: 14 days after application
Procedure, shortened: as §1

[10] = system: common ragweed (Ambrosia artemisiifolia L., AMBEL); test: as above; conditions: 14 days after application
Procedure, shortened: as §1

[11] = system: upland rice (Oryza sp., var.Tebonnet, RICE); test: Pre-emerge greenhouse test, crop damage rating; conditions: 14 days after application, rating scale 0-100
Procedure, shortened: (§2)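 Visual 0–100 injury rating (100 = all plants dead) taken 14 days after treatment. Rates of 125–1000 g ai/ha in acetone, 187 l/ha, were sprayed onto soil one day post-sowing; pots were surface-watered to incorporate, then bottom-watered.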

[12] = system: field corn (Zea mays L., var. Dekalb 535, CORN); test: Pre-emerge greenhouse test, crop damage rating; conditions: 14 days after application, rating scale 0-100
Procedure, shortened: as §2

[13] = system: large crabgrass (Digitaria sanguinalis, DIGSA); test: Pre-emerge greenhouse herbicide test, phytotoxicity rating; conditions: 14 days after application, rating scale 0-100
Procedure, shortened: as §2

[14] = system: redroot pigweed (Amaranthus retroflexus, AMARE); test: as above; conditions: 14 days after application, rating scale 0-100
Procedure, shortened: as §2

[15] = system: barnyardgrass (Echinochloa crusgalli, ECHCG); test: as above; conditions: 14 days after application, rating scale 0-100
Procedure, shortened: as §2

[16] = system: ivyleaf morningglory (Ipomoea hederacea, IPOHE); test: as above; conditions: 14 days after application, rating scale 0-100
Procedure, shortened: as §2

[17] = system: Johnsongrass (Sorghum halepense, SORHA); test: as above; conditions: 14 days after application, rating scale 0-100
Procedure, shortened: as §2

[18] = system: green foxtail (Setaria viridis, SETVI); test: as above; conditions: 14 days after application, rating scale 0-100
Procedure, shortened: as §2

[19] = system: sicklepod (Cassia obtusifolia, CASOB); test: as above; conditions: 14 days after application, rating scale 0-100
Procedure, shortened: as §2

[20] = system: common ragweed (Ambrosia artemisiifolia L., AMBEL); test: as above; conditions: 14 days after application, rating scale 0-100
Procedure, shortened: as §2

[21] = system: lambsquarters (Chenopodium album, CHEAL); test: as above; conditions: 14 days after application, rating scale 0-100
Procedure, shortened: as §2

[22] = system: velvetleaf (Abutilon theophrasti, ABUTH); test: as above; conditions: 14 days after application, rating scale 0-100
Procedure, shortened: as §2

[23] = system: soybean (Glycine max L., var. Pella 86, SOY); test: Post-emerge greenhouse test, crop damage rating; design: key to crop damage rating SOY: 0-100 scale: 0 = no damage, 100 = complete death of all plants; conditions: 14 days after application
Procedure, shortened: as §1

[24] = system: upland rice (Oryza sp., var.Tebonnet, RICE); test: Post-emerge greenhouse test, crop damage rating; conditions: 14 days after application
Procedure, shortened: as §1

[25] = system: field corn (Zea mays L., var. Dekalb 535, CORN); test: Post-emerge greenhouse test, crop damage rating; conditions: 14 days after application
Procedure, shortened: as §1

[26] = system: soybean (Glycine max L., var. Pella 86, SOY); test: Pre-emerge greenhouse test, crop damage rating; design: key to SOY crop damage rating: 0 = no damage, 100 = complete death of all plants; conditions: 14 days after application, rating scale 0-100
Procedure, shortened: as §2

## Nc1ccc(Oc2cc(-n3c(=O)n4n(c3=S)CCCC4)c(F)cc2Cl)c(C(F)(F)F)c1 [Compound 8-15]
[1]; 63 g al/ha
  DIGSA phytotoxicity rating (0-100): 0
[1]; 500 g al/ha
  DIGSA phytotoxicity rating (0-100): 0
[2]; 63 g al/ha
  AMARE phytotoxicity rating (0-100): 40
[2]; 500 g al/ha
  AMARE phytotoxicity rating (0-100): 70
[3]; 63 g al/ha
  ECHCG phytotoxicity rating (0-100): 0
[3]; 500 g al/ha
  ECHCG phytotoxicity rating (0-100): 0
[4]; 63 g al/ha
  IPOHE phytotoxicity rating (0-100): 40
[4]; 500 g al/ha
  IPOHE phytotoxicity rating (0-100): 80
[5]; 63 g al/ha
  SORHA phytotoxicity rating (0-100): 0
[5]; 500 g al/ha
  SORHA phytotoxicity rating (0-100): 0
[6]; 63 g al/ha
  SETVI phytotoxicity rating (0-100): 0
[6]; 500 g al/ha
  SETVI phytotoxicity rating (0-100): 0
[7]; 63 g al/ha
  CASOB phytotoxicity rating (0-100): 0
[7]; 500 g al/ha
  CASOB phytotoxicity rating (0-100): 50
[8]; 63 g al/ha
  CHEAL phytotoxicity rating (0-100): 70
[8]; 500 g al/ha
  CHEAL phytotoxicity rating (0-100): 90
[9]; 63 g al/ha
  ABUTH phytotoxicity rating (0-100): 50
[9]; 500 g al/ha
  ABUTH phytotoxicity rating (0-100): 80
[10]; 63 g al/ha
  AMBEL phytotoxicity rating (0-100): 30
[10]; 500 g al/ha
  AMBEL phytotoxicity rating (0-100): 70
[11]; 125 g ai/ha
  crop damage rating RICE: 0
[11]; 500 g ai/ha
  crop damage rating RICE: 0
[12]; 125 g ai/ha
  crop damage rating CORN: 0
[12]; 500 g ai/ha
  crop damage rating CORN: 0
[13]; 125 g ai/ha
  phytotoxicity rating DIGSA: 0
[13]; 500 g ai/ha
  phytotoxicity rating DIGSA: 0
[14]; 125 g ai/ha
  phytotoxicity rating AMARE: 0
[14]; 500 g ai/ha
  phytotoxicity rating AMARE: 40
[15]; 125 g ai/ha
  phytotoxicity rating ECHCG: 0
[15]; 500 g ai/ha
  phytotoxicity rating ECHCG: 0
[16]; 125 g ai/ha
  phytotoxicity rating IPOHE: 0
[16]; 500 g ai/ha
  phytotoxicity rating IPOHE: 0
[17]; 125 g ai/ha
  phytotoxicity rating SORHA: 0
[17]; 500 g ai/ha
  phytotoxicity rating SORHA: 0
[18]; 125 g ai/ha
  phytotoxicity rating SETVI: 0
[18]; 500 g ai/ha
  phytotoxicity rating SETVI: 0
[19]; 125 g ai/ha
  phytotoxicity rating CASOB: 0
[19]; 500 g ai/ha
  phytotoxicity rating CASOB: 0
[20]; 125 g ai/ha
  phytotoxicity rating AMBEL: 0
[20]; 500 g ai/ha
  phytotoxicity rating AMBEL: 0
[21]; 125 g ai/ha
  phytotoxicity rating CHEAL: 0
[21]; 500 g ai/ha
  phytotoxicity rating CHEAL: 100
[22]; 125 g ai/ha
  phytotoxicity rating ABUTH: 0
[22]; 500 g ai/ha
  phytotoxicity rating ABUTH: 50
[23]; 63 g al/ha
  SOY crop damage rating (0-100): 20
[23]; 500 g al/ha
  SOY crop damage rating (0-100): 50
[24]; 63 g al/ha
  RICE crop damage rating (0-100): 0
[24]; 500 g al/ha
  RICE crop damage rating (0-100): 0
[25]; 63 g al/ha
  CORN crop damage rating (0-100): 0
[25]; 500 g al/ha
  CORN crop damage rating (0-100): 0
[26]; 125 g ai/ha
  crop damage rating SOY: 0
[26]; 500 g ai/ha
  crop damage rating SOY: 0

## CC(=O)Nc1ccc(Oc2cc(-n3c(=O)n4n(c3=S)CCCC4)c(F)cc2Cl)c(C(F)(F)F)c1 [Compound 8-16]
[1]; 63 g al/ha
  DIGSA phytotoxicity rating (0-100): 0
[1]; rate 500 g ai/ha, scale 0-100
  phytotoxicity rating DIGSA: 0
[2]; 63 g al/ha
  AMARE phytotoxicity rating (0-100): 90
[2]; rate 500 g ai/ha, scale 0-100
  phytotoxicity rating AMARE: 100
[3]; 63 g al/ha
  ECHCG phytotoxicity rating (0-100): 0
[3]; rate 500 g ai/ha, scale 0-100
  phytotoxicity rating ECHCG: 0
[4]; 63 g al/ha
  IPOHE phytotoxicity rating (0-100): 90
[4]; rate 500 g ai/ha, scale 0-100
  phytotoxicity rating IPOHE: 75
[5]; 63 g al/ha
  SORHA phytotoxicity rating (0-100): 0
[5]; rate 500 g ai/ha, scale 0-100
  phytotoxicity rating SORHA: 10
[6]; 63 g al/ha
  SETVI phytotoxicity rating (0-100): 10
[6]; rate 500 g ai/ha, scale 0-100
  phytotoxicity rating SETVI: 30
[7]; 63 g al/ha
  CASOB phytotoxicity rating (0-100): 0
[7]; rate 500 g ai/ha, scale 0-100
  phytotoxicity rating CASOB: 70
[8]; 63 g al/ha
  CHEAL phytotoxicity rating (0-100): 85
[8]; rate 500 g ai/ha, scale 0-100
  phytotoxicity rating CHEAL: 95
[9]; 63 g al/ha
  ABUTH phytotoxicity rating (0-100): 80
[9]; rate 500 g ai/ha, scale 0-100
  phytotoxicity rating ABUTH: 100
[10]; 63 g al/ha
  AMBEL phytotoxicity rating (0-100): 40
[10]; rate 500 g ai/ha, scale 0-100
  phytotoxicity rating AMBEL: 40
[11]; 125 g ai/ha
  crop damage rating RICE: 0
[11]; Rate 500 g al/ha
  RICE crop damage rating: 0
[12]; 125 g ai/ha
  crop damage rating CORN: 0
[12]; Rate 500 g al/ha
  CORN crop damage rating: 0
[13]; 125 g ai/ha
  phytotoxicity rating DIGSA: 0
[13]; Rate 500 g al/ha
  DIGSA phytotoxicity rating: 30
[14]; 125 g ai/ha
  phytotoxicity rating AMARE: 80
[14]; Rate 500 g al/ha
  AMARE phytotoxicity rating: 90
[15]; 125 g ai/ha
  phytotoxicity rating ECHCG: 0
[15]; Rate 500 g al/ha
  ECHCG phytotoxicity rating: 0
[16]; 125 g ai/ha
  phytotoxicity rating IPOHE: 0
[16]; Rate 500 g al/ha
  IPOHE phytotoxicity rating: 0
[17]; 125 g ai/ha
  phytotoxicity rating SORHA: 0
[17]; Rate 500 g al/ha
  SORHA phytotoxicity rating: 10
[18]; 125 g ai/ha
  phytotoxicity rating SETVI: 0
[18]; Rate 500 g al/ha
  SETVI phytotoxicity rating: 70
[19]; 125 g ai/ha
  phytotoxicity rating CASOB: 0
[19]; Rate 500 g al/ha
  CASOB phytotoxicity rating: 0
[20]; 125 g ai/ha
  phytotoxicity rating AMBEL: 40
[20]; Rate 500 g al/ha
  AMBEL phytotoxicity rating: 100
[21]; 125 g ai/ha
  phytotoxicity rating CHEAL: 100
[21]; Rate 500 g al/ha
  CHEAL phytotoxicity rating: 100
[22]; 125 g ai/ha
  phytotoxicity rating ABUTH: 90
[22]; Rate 500 g al/ha
  ABUTH phytotoxicity rating: 100
[23]; 63 g al/ha
  SOY crop damage rating (0-100): 10
[23]; rate 500 g ai/ha, scale 0-100
  crop damage rating SOY: 20
[24]; 63 g al/ha
  RICE crop damage rating (0-100): 0
[24]; rate 500 g ai/ha, scale 0-100
  crop damage rating RICE: 0
[25]; 63 g al/ha
  CORN crop damage rating (0-100): 0
[25]; rate 500 g ai/ha, scale 0-100
  crop damage rating CORN: 5
[26]; 125 g ai/ha
  crop damage rating SOY: 0
[26]; Rate 500 g al/ha
  SOY crop damage rating: 10
